The source of these data is patent US20110144040A1, “Acteoside and acteoside-rich plant extracts for increasing athletic performance in humans” (MN Intellectual Property Corp, LLC, priority 2009, published 2011).

Experiment [1] concerns free-radical induced oxidative stress. The conditions noted are these: J Pharm Pharmacol 2004 56(6) 743-8; cited from earlier work.
Experiment [2] relates to prostaglandin biosynthesis. As to conditions: Arch Pharm Res 2006 29(6), 508-13; cited from earlier work.
The test system of experiment [3] is athletic performance in humans. Nature of the experiment: oral acteoside supplementation for athletic performance in exercising humans. It counts as in vivo, human. As to conditions: peroral, used according to recommended protocols. An excerpt:
Athletic performance is defined as any sporting activity where muscle strength and/or endurance are integral to individual performance, and is inclusive of both aerobic and anaerobic metabolic conditions. This includes active athletic competition, such as baseball, football, running, or Track & Field. It also includes any exercise activity designed to improve physical performance, directly or indirectly, via an improvement in muscle protein content (size), strength, and/or endurance, such as resistance training (circuit equipment, weight training), aerobics, Pilates, and/or calisthenics. Any improvement in athletic performance must include objective increases in speed, strength, muscle size (protein content), and/or endurance. It may also involve improved recovery from fatigue following exercise or athletic competition.
This includes an ability to increase muscle strength, muscle power, endurance, and muscle protein content (size), as well as to reduce fatigue and facilitate recovery following intense exercise or athletic competition. The benefits appear almost immediately in some cases, but are more likely to occur after several weeks of regular use of acteoside or extracts containing acteoside. […]
During the course of developing this invention, an effective oral daily dosage of acteoside to improve athletic performance was determined to be between 25 mg to 2,500 mg. […]

Consider `C[C@@H]1O[C@@H](O[C@@H]2[C@@H](O)[C@H](OCCc3ccc(O)c(O)c3)O[C@H](CO)[C@H]2OC(=O)/C=C/c2ccc(O)c(O)c2)[C@H](O)[C@H](O)[C@H]1O` [acteoside], for which the “inhibition of free-radical induced oxidative stress” value in experiment [1] is listed as “strong inhibitor”. Further, in experiment [2], the “inhibition of prostaglandin biosynthesis” value is listed as “strong inhibitor”. Besides, the improving athletic performance entry in experiment [3] is given as “effective in-vivo peroral agents for improving athletic performance”.
